Assay results from a melting point compilation (Tetko et al.; mined from patent text by program, amines drawn as free bases though some values may be those of a salt).

Structure (SMILES)	melting point
O=C(O)C(CCO)N1CCCC1=O (centres undefined)	123 to 124 °C
CCc1c(CCNC(=O)CCC(C)CC(=O)NCCc2ccc(OC)c(OC)c2CC)ccc(OC)c1OC (centres undefined)	152 to 153 °C
Cc1oncc1C(=O)N1CCC[C@H](c2nc(-c3cc4ccccc4[nH]3)no2)C1	163 to 164 °C
COc1ccc2c(c1)C(=O)N(CCCN(C)CCN1C(=O)c3ccccc3C(C)(C)C1=O)C(=O)C2(C)C	158 °C
Cc1ccc(C)c(C(=O)NCCC23CC4CC(CC(C4)C2)C3)c1	153 °C
COc1cc(C2C3=C(COC3=O)Nc3ccc4ncsc4c32)ccc1O (centres undefined)	296 to 297 °C
Cc1c(C)n2nnnc2c2nc(C)n(CCNC(=O)OC(C)(C)C)c12	> 250 °C
CCCn1cc(S(C)=O)c(=O)c2ccccc21 (centres undefined)	126 to 128 °C
COC12CC(CO)CN(C)C1CC1CNc3cccc2c31 (centres undefined)	134 to 138 °C
Nc1cc(O)ccc1CCCl	96 to 100 °C
COc1ccc(C(Cn2cc[nH]c2=O)=NO)cc1OC1CCCC1	191 °C
CC=CC(=O)c1c(CCC)n(Cc2ccccc2Cl)c2cc(C(N)=O)ccc12	186 °C
OC1CCSC(=S)N1Cc1ccco1 (centres undefined)	42 to 43 °C
NC(=O)Nc1ccc2c(=O)n(CCCCN3CC=C(c4ccccc4)CC3)c(=O)[nH]c2c1	260 °C
O=[N+]([O-])c1cnn(-c2c(Cl)cc(Cl)cc2Cl)c1Cl	78 to 84 °C
CCN(CC)CCOC(=O)CCc1cc(S(C)(=O)=O)cc(-c2nc(=O)c3ccc(Cl)cc3s2)n1	150 to 152 °C
COc1ccc(Br)c(CN(CC(F)(F)F)C(=O)OC(C)(C)C)c1	86 to 89 °C

The remaining lines, values ahead:

melting point	Structure (SMILES)
118 to 122 °C	COc1ccccc1[C@H](c1cccc2ccccc12)[C@@](C)(C#N)C(=O)N1CC=C(c2ccc(Cl)cc2)CC1
150 to 152 °C	COc1cccc(C(O)CN(C)Cc2sc3c(=O)c(C(=O)NCc4ccc(Cl)cc4)cn(C)c3c2COCC[Si](C)(C)C)c1 (centres undefined)
115 to 117 °C	CC(O)c1cc(C[C@H](NC(=O)c2c(Cl)cccc2Cl)C(=O)O)ccc1-c1ccccc1 (some centres undefined)
138 to 140 °C	CCOC(=O)C1=C(C)NC(C)=C(C(=O)OCC)C1c1ccccc1C=CC(=O)OC
222 to 223 °C	Cc1c(-c2ccccc2)nc2ccc(-c3cccc(CO)c3)cn12
116 to 118 °C	COc1ccc(N(CCCC(O)CO)S(=O)(=O)c2c(F)c(F)c(F)c(F)c2F)cc1 (centres undefined)
285 to 290 °C	CC12CCC3c4ccc(C(=O)O)cc4CCC3C1CCC2C(=O)CCc1ccc(C(=O)O)cc1 (centres undefined)
173 to 174 °C	CC(C)NCC(O)COc1ccc(-c2nc(C(F)(F)F)c[nH]2)cc1 (centres undefined)
> 300 °C	N#Cc1cn(N(CO)c2c(Cl)cc(Cl)cc2Cl)c(=O)[nH]c1=O
134 to 137 °C	COc1cc2c(cc1OCc1ccccc1)C(c1ccccc1)=NCC2
248 to 249 °C	CCc1cnc(N2CCN(C(=O)c3ccc(Nc4ncnc5ccccc45)cc3)CC2)nc1
176 to 178 °C	COc1cc(OC)nc(NC(=O)NS(=O)(=O)c2ccccc2C(CF)OC(C)=O)n1 (centres undefined)
120 to 121 °C	C=C(C(=O)OC)N(Cc1ccccc1NC(=O)C(F)(F)F)S(=O)(=O)c1ccc(OC)cc1
140 to 141 °C	CNC(=O)COc1cccc(CCNC(=O)/C=C/c2cccnc2)c1
> 320 °C	CC(=O)Nc1ccc2nc3[nH]c(=O)[nH]c3cc2c1
139 to 141 °C	CN1c2cscc2C(=O)N(CCN2CCCC2)c2ccccc21
101 to 103 °C	Cc1ccc(S(=O)(=O)OCC2Cc3cccc(-c4cccc(Cl)c4)c3O2)cc1 (centres undefined)
161 to 163 °C	CCC(CCC1(C(N)=O)c2ccccc2-c2ccccc21)NC(C)C (centres undefined)
150 to 151 °C	c1cc(CN2CCCCC2)cc(OCCCNc2nnc3ccccn23)c1
78 to 79 °C	COc1ccccc1C(=O)OCC(=O)c1ccccc1
193 to 195 °C	O=S(=O)(c1cc(-c2ccncc2)sc1-c1ccncc1)N1CCCC1
150 °C	CSc1ccc(NC(=O)N(O)C(C)C)cc1
